Holding throughout (experiment): growth of human tumour cells (NCI), 48 h
Experiment [1] deals with HOP-62.
The test system of experiment [2] is RPMI-8226.
The test system of experiment [3] is NCI-H460.
For experiment [4], the system named is EKVX.
The test system of experiment [5] is SNB-19.
Experiment [6] deals with OVCAR-3.
In experiment [7] the test system is IGROV-1.
For experiment [8], the system named is HL-60.
Experiment [9] relates to SK-MEL-2.
Experiment [10] relates to A498.
Experiment [11] has as its system HCC 2998.
Experiment [12] deals with SN12C.
For experiment [13], the system named is CAKI-1.
Experiment [14] relates to SR.
Experiment [15] concerns HCT-15.
The test system of experiment [16] is SNB-75.

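Protocol summary: plate cells (96-well), add compound at 5 concentrations, incubate 48 h, interpolate endpoints linearly. The concentration for 50% growth inhibition is given as GI50.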 Activity calls are given as the source filed them. No stated cut-off is given here; in the data, active = GI50 up to about 1.1 µM and inactive = higher.

Take `CC1(C)OC(=O)C(=Cc2ccc(O)cc2)C(=O)O1`: the GI50 in experiment [1], in experiment [2], in experiment [3], in experiment [4], in experiment [5] and in experiment [6] was > 100 µM (inactive) in each case. Further, the GI50 in experiment [7], in experiment [8], in experiment [9], in experiment [10], in experiment [11] and in [12] was > 100 µM (inactive) in each case. Moreover, the GI50 in experiment [13] is > 100 µM (inactive); in [14] it was > 100 µM (inactive); in experiment [15] it was greater than 100 µM.

In the case of `C1COCCSC2=C(SCCO1)SC(=C1SC3=C(SCCOCCOCCS3)S1)S2`, the GI50 in experiment [1] is 82.2 µM (inactive); in experiment [3] it was 96.4 µM (inactive); in experiment [4], > 100 µM (inactive); in experiment [5], 73.8 µM (inactive); in experiment [6], > 100 µM (inactive); in [7] it was > 100 µM (inactive). The GI50 in [16] was 21.7 µM (inactive); in [8] it was > 100 µM (inactive); in experiment [9], 84.3 µM (inactive); in experiment [10] it was > 100 µM (inactive); in experiment [11] it was > 100 µM (inactive); in experiment [12] it was > 100 µM (inactive). Further, the GI50 in [13] was > 100 µM (inactive); in [14] it was 66.4 µM (inactive); in experiment [15], greater than 100 µM.

As to `N#Cc1sc2nc3c(c(-c4ccccc4)c2c1N)CCCC3`, the GI50 in experiment [1] was > 10 µM (inactive); in [2], > 100 µM (inactive); in experiment [3], 55.2 µM (inactive); in experiment [5] it was 56.8 µM (inactive); in experiment [6] it was > 10 µM (inactive); in [8], > 100 µM (inactive). Besides, the GI50 in [9], in experiment [10], in experiment [11], in [12], in experiment [13] and in [14] was > 100 µM (inactive) in each case. The GI50 in experiment [15] was 60.5 µM.

Turning to `CCCCOC(=O)NC(=O)c1cn(CCCOC(=O)NCCCCCCNC(=O)OCCCn2cc(C(=O)NC(=O)OCCCC)c(=O)[nH]c2=O)c(=O)[nH]c1=O`, the GI50 in experiment [1] was > 100 µM (inactive); in experiment [2], > 100 µM (inactive); in [3], > 100 µM (inactive); in experiment [4], > 100 µM (inactive); in experiment [5], 48.4 µM (inactive); in [6] it was > 100 µM (inactive). The GI50 in [7], in [16], in experiment [8], in experiment [9], in [10] and in experiment [11] was > 100 µM (inactive) in each case. Besides, the GI50 in experiment [12] is > 100 µM (inactive); in experiment [14], > 100 µM (inactive); in experiment [15], greater than 100 µM.

`O=C(OC[C@H]1O[C@@H](OC(=O)c2cc(O)c(O)c(O)c2)[C@H](OC(=O)c2cc(O)c(O)c(O)c2)[C@@H](OC(=O)c2cc(O)c(O)c(O)c2)[C@@H]1OC(=O)c1cc(O)c(O)c(O)c1)c1cc(O)c(O)c(O)c1` [PENTAGALLOYL GLUCOSE]: the GI50 in experiment [1] was 3.89 µM (inactive); in experiment [2], 2.76 µM (inactive); in [3] it was 3.27 µM (inactive); in [4] it was 6.04 µM (inactive); in experiment [5], 4.88 µM (inactive); in experiment [6], 3.78 µM (inactive). The GI50 is 5.73 µM (inactive) in experiment [7]; 3.65 µM (inactive) in [8]; 10.7 µM (inactive) in [9]; 6.32 µM (inactive) in experiment [10]; 3.21 µM (inactive) in experiment [11]; 11.9 µM (inactive) in [12]. In addition, the GI50 in [13] was 7.67 µM (inactive); in experiment [14] it was 4.13 µM (inactive); in experiment [15] it was 5.21 µM.
